Reference: patent US11780830B2, “Triazolone derivatives or salts thereof and pharmaceutical compositions comprising the same” (YUHAN CORPORATION, priority 2018, dated 2023)
Structures can show the parent of a compound that is named as a salt.

How the values were obtained:
Assay type in all cases: biochemical
recombinant human VAP-1 = target: T1, recombinant human VAP-1 (Homo sapiens, UniProt Q16853); assay: Activity on recombinant human VAP-1, HRP-coupled Amplex Red hydrogen peroxide assay; conditions: substrate 1 mM benzylamine; compound incubated with enzyme at 37° C. for 30 minutes; pH 7.4; read-out: Inhibitory Activity (IC50, nM) human VAP-1
T1 construct: purchased R&D systems
T1 sequence (Q16853 1-763): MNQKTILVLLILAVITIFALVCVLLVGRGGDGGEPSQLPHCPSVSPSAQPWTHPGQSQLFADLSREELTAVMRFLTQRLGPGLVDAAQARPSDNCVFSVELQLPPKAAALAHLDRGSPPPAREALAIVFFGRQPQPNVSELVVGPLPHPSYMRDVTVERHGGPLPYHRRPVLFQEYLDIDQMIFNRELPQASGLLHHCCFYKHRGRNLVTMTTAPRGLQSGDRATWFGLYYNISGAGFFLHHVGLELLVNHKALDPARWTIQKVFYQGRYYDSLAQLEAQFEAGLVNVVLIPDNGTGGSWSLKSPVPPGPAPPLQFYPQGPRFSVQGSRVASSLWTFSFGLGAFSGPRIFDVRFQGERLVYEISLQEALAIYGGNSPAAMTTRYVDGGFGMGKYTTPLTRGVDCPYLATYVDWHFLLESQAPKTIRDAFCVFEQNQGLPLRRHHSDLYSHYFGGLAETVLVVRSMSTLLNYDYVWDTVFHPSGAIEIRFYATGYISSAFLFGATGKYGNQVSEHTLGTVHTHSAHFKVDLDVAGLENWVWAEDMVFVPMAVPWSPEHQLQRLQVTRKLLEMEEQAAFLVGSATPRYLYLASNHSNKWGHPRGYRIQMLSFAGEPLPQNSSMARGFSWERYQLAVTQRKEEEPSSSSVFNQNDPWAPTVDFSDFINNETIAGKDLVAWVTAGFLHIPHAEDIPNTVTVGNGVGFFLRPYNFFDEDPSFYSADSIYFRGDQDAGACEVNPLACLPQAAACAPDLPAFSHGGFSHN
Method: (§1) The compounds according to the present technology were evaluated in terms of activity on recombinant human VAP-1 (R&D systems) by measuring the level of hydrogen peroxide in horseradish peroxidase (HRP)-coupled reaction using Amplex Red Hydrogen Peroxide Assay Kit (Molecular Probes, Invitrogen, USA). The experiment was carried out at room temperature using benzylamine as a substrate. In the HRP-coupled reaction, hydrogen peroxide oxidation of 10-acetyl-3,7-dihydroxyphenoxazine (Amplex Red reagent) produces resorufin, which is a highly fluorescent compound. Briefly, the test compound was dissolved in dimethyl sulfoxide (DMSO) at a concentration of 20 mM. The dose-response assessment was made by 1:3 serial dilution in DMSO, thereby creating an 8 point curve. The concentration of the upper part was controlled according to the efficacy of the compounds, followed by dilution with a reaction buffer solution to obtain a final DMSO concentration less than 1%. To each well of a 96 black well plate, human VAP-1 purified in 50 mM sodium phosphate buffer solution (pH7.4) was added. The test compounds dissolved in DMSO were incubated with the human VAP-1 enzymes at 37° C. for 30 minutes. After 30-minute incubation, each well is added with a reaction mixture containing 200 uM Amplex Red reagent prepared from 50 mM sodium phosphate buffer solution (pH 7.4), 1 mM benzylamine, and 1 U/mL HRP. Fluorescence intensity was measured at several time points during 1-2 hours using a microplate reader (Flexstation3, Molecular Devices) under the wavelength condition exciting at 544 nm and reading the emission at 590 nm. The inhibitory effect of the compounds was measured as a decrease (%) in the signal rate as compared to the control group without any inhibitor (only diluted DMSO). Data was fixed to a logistic model with four variables and IC50 value was calculated using GraphPad Prism program.

[1] = target: T2, recombinant human MAO-A (monoamine oxidase-A) (Homo sapiens, UniProt P21397); assay: Activity on recombinant human MAO-A, method similar to the VAP-1 assay; conditions: substrate 0.5 mM tyramine; read-out: Inhibitory Activity (IC50, nM) MAO-A
T2 construct: purchased Sigma-Aldrich
T2 sequence (P21397 1-527): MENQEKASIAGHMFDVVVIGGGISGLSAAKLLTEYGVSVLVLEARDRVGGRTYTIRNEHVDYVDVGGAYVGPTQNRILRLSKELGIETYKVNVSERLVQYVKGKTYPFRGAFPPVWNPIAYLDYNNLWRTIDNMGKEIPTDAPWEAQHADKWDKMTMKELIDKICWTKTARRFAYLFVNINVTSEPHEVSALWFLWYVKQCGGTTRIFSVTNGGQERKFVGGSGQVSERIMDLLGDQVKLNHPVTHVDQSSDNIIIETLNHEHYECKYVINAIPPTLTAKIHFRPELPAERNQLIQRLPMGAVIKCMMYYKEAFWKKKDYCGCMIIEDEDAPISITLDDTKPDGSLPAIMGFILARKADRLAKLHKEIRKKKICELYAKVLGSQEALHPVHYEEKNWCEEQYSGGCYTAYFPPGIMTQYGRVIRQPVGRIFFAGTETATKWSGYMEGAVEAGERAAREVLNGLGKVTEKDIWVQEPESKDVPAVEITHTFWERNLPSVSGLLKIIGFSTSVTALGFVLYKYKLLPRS
Method: as §1
(§2) In addition, the compounds according to the present technology were evaluated in terms of activity on a recombinant human MAO-A (monoamine oxidase-A, Sigma-Aldrich) and a recombinant human MAO-B (monoamine oxidase-B, Sigma-Aldrich) by using as substrates, 0.5 mM tyramine and 1 mM benzylamine, respectively, with a method similar to the activity evaluation method for recombinant human VAP-1. The compounds according to the present technology were also evaluated in terms of activity on a recombinant human DAO (diamine oxidase, R&D systems) by using as a substrate 1 mM putrescine with a method similar to the activity evaluation method for recombinant human VAP-1.

[2] = target: T3, recombinant human MAO-B (monoamine oxidase-B) (Homo sapiens, UniProt P27338); assay: Activity on recombinant human MAO-B, method similar to the VAP-1 assay; conditions: substrate 1 mM benzylamine; read-out: Inhibitory Activity (IC50, nM) MAO-B
T3 construct: purchased Sigma-Aldrich
T3 sequence (P27338 1-520): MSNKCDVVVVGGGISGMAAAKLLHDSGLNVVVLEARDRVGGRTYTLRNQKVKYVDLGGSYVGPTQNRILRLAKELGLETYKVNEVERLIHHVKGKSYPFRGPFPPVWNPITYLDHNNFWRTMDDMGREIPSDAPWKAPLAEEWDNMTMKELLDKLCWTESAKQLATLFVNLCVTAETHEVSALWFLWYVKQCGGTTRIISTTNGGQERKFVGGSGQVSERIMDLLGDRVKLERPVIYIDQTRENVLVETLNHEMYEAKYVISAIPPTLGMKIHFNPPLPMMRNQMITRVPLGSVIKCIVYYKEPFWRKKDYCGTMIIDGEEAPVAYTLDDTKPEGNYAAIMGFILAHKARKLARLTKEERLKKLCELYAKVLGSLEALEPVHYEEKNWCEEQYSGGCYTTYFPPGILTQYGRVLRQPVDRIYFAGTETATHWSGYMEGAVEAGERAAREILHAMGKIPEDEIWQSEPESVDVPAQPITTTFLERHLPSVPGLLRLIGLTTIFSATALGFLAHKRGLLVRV
Method: as §1, §2

[3] = target: T4, recombinant human DAO (diamine oxidase) (Homo sapiens, UniProt P19801); assay: Activity on recombinant human DAO, method similar to the VAP-1 assay; conditions: substrate 1 mM putrescine; read-out: Inhibitory Activity (IC50, nM) DAO
T4 construct: purchased R&D systems
T4 sequence (P19801 20-751): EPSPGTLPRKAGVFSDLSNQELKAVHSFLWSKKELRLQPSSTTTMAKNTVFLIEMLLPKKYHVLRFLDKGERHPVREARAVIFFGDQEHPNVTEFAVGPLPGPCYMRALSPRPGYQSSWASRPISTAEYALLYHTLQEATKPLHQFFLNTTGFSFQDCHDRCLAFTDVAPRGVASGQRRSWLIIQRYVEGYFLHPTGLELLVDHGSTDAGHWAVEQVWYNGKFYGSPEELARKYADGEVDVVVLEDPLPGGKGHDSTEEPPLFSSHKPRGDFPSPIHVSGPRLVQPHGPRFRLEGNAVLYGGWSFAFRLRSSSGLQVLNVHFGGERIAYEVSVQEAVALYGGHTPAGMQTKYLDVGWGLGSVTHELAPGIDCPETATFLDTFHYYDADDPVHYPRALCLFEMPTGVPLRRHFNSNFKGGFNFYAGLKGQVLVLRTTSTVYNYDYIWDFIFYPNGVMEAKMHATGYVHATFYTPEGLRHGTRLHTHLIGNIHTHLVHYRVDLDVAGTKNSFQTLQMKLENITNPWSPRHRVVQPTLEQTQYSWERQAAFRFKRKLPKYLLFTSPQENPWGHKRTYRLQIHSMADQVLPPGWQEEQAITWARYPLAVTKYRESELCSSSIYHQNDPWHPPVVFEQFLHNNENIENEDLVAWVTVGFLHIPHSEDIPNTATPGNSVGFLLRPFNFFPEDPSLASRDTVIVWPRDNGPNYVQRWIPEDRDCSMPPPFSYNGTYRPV
Method: as §1, §2

| SMILES | IC50 (recombinant human VAP-1) [nM] | IC50 [1] [nM] | IC50 [2] [nM] | IC50 [3] [nM] |
| --- | --- | --- | --- | --- |
| NC/C(=C/F)Cn1ncn(Cc2ccc(Br)s2)c1=O [Example 1, 2-[(2Z)-2-(aminomethyl)-3-fluoroprop-2-en-1-yl]-4-[(5-bromothiophen-2-yl)methyl]-2,4-dihydro-3H-1,2,4-triazol-3-one] | 5.7 | 18000 | 14 | 3020 |
| NC/C(=C\F)Cn1ncn(Cc2ccc(Br)s2)c1=O [Example 2, 2-[(2E)-2-(aminomethyl)-3-fluoroprop-2-en-1-yl]-4-[(5-bromothiophen-2-yl)methyl]-2,4-dihydro-3H-1,2,4-triazol-3-one hydrochloride] | 5.2 | > 100000 | 14 | 3300 |
| NC/C(=C/F)Cn1ncn(Cc2ccc(-c3ccc(N)cc3)s2)c1=O [Example 3, 2-[(2Z)-2-(aminomethyl)-3-fluoroprop-2-en-1-yl]-4-[5-(4-aminophenyl)thiophen-2-yl]methyl-2,4-dihydro-3H-1,2,4-triazol-3-one hydrochloride] | 4.7 | 72000 | 21 | 860 |
| CN(C)c1cccc(-c2ccc(Cn3cnn(C/C(=C/F)CN)c3=O)s2)c1 [Example 4, 2-[(2E)-2-(aminomethyl)-3-fluoroprop-2-en-1-yl]-4-(5-[3-(dimethylamino)phenyl]thiophen-2-ylmethyl)-2,4-dihydro-3H-1,2,4-triazol-3-one hydrochloride] | 4.6 | 35000 | 50 | 9500 |
| CN(C)c1ccc(-c2ccc(Cn3cnn(C/C(=C/F)CN)c3=O)s2)cc1 [Example 5, 2-[(2E)-2-(aminomethyl)-3-fluoroprop-2-en-1-yl]-4-(5-[4-(dimethylamino)phenyl]thiophen-2-ylmethyl)-2,4-dihydro-3H-1,2,4-triazol-3-one hydrochloride] | 3.3 | > 100000 | 680 |  |
| CN(C)c1cc(-c2ccc(Cn3cnn(C/C(=C/F)CN)c3=O)s2)ccc1F [Example 6, 2-[(2E)-2-(aminomethyl)-3-fluoroprop-2-en-1-yl]-4-(5-[3-(dimethylamino)-4-fluorophenyl]thiophen-2-ylmethyl)-2,4-dihydro-3H-1,2,4-triazol-3-one hydrochloride] | 3.4 | > 100000 | 70 | 2900 |
| CS(=O)(=O)Nc1ccc(-c2ccc(Cn3cnn(C/C(=C/F)CN)c3=O)s2)cc1 [Example 7, N-4-[5-(1-[(2E)-2-(aminomethyl)-3-fluoroprop-2-en-1-yl]-5-oxo-1,5-dihydro-4H-1,2,4-triazol-4-ylmethyl)thiophen-2-yl]phenylmethansulfonamide hydrochloride] | 0.4 | 35000 | 11000 | 1000 |
| CNS(=O)(=O)c1cccc(-c2ccc(Cn3cnn(C/C(=C/F)CN)c3=O)s2)c1 [Example 8, 3-[5-(1-[(2E)-2-(aminomethyl)-3-fluoroprop-2-en-1-yl]-5-oxo-1,5-dihydro-4H-1,2,4-triazol-4-ylmethyl)thiophen-2-yl]-N-methylbenzenesulfonamide hydrochloride] | 1.2 | > 100000 | 210 | 520 |
| CC(C)(C)NS(=O)(=O)c1cncc(-c2ccc(Cn3cnn(C/C(=C/F)CN)c3=O)s2)c1 [Example 186, 5-[5-({1-[(2E)-2-(aminomethyl)-3-fluoroprop-2-en-1-yl]-5-oxo-1,5-dihydro-4H-1,2,4-triazol-4-yl}methyl)thiophen-2-yl]-N-tert-butylpyridin-3-sulfonamide] | 2.4 |  | 20000 | 140 |
| NC/C(=C\F)Cn1ncn(Cc2ccc(-c3ccc(S(=O)(=O)N4CCOCC4)cc3)s2)c1=O [Example 198, 2-[(2E)-2-(aminomethyl)-3-fluoroprop-2-en-1-yl]-4-({5-[4-(morpholin-4-ylsulfonyl)phenyl]thiophen-2-yl}methyl)-2,4-dihydro-3H-1,2,4-triazol-3-one] | 2.2 |  | 6200 | 220 |
